The structures appear in SMILES notation.

The values that follow come from PMC4168900, “Expeditive synthesis of trithiotriazine-cored glycoclusters and inhibition of Pseudomonas aeruginosa biofilm formation” (Beilstein Journal of Organic Chemistry, 2014).

The target in experiment [1] is T1, lecA (Pseudomonas aeruginosa, UniProt Q05097). The experiment in a line: Isothermal titration calorimetry (ITC), binding to lecA. To be noted: for ΔG / ΔH / β/N (improvement in affinity relative to the methyl glycoside, divided by the valency) / −TΔS / n (stoichiometry): T = 298 K; for n (stoichiometry): glycocluster ligands per monomer of lectin. The method, then: The affinities of the designed glycoconjugates with lecA and lecB were determined by isothermal titration calorimetry (ITC) by addition of the ligands to a solution of lectin (Figure 3). Dissociation constants (Kd) and thermodynamic parameters (ΔG, ΔH, −TΔS) are listed in Table 1, together with the experimental binding stoichiometry (n), defined as the number of glycocluster ligands per monomer of lectin. […]
T1 sequence (Q05097 2-122): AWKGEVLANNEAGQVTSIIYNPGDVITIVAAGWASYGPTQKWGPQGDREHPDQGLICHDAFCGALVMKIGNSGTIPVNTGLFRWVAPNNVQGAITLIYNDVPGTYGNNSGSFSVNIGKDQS
Isothermal titration microcalorimetry (ITC):
Recombinant lyophilized lecA and lecB were dissolved in buffer (100 mM Tris-HCl pH 7.5, 6 µM CaCl2,) and degassed. The same procedure was applied for lecB with a different buffer (20mM Tris-HCl pH 7.54 100mM NaCl 100µM CaCl2). Protein concentration varied between 50 and 120 µM depending on the ligand affinity. Carbohydrate ligands were dissolved directly into the same buffer, degassed, and placed in the injection syringe. ITC was performed using a VP-ITC MicroCalorimeter from MicroCal Incorporated. lecA was placed into the 1.4478 mL sample cell, at 25°C. Titration was performed with 10 µL injections of carbohydrate ligands every 300 s. Data were fitted using MicroCal Origin 7 software according to standard procedures. Fitted data yielded the stoichiometry (n), the association constant (Ka), and the enthalpy of binding (∆H). Other thermodynamic parameters (i.e., changes in free energy ∆G and entropy ∆S) were calculated from the equation ∆G = ∆H - T∆S = -[…] in which T is the absolute […]
temperature and R = 8.314 Jmol-1K-1. […]

The target in experiment [2] is T1, lecA. As to the kind of experiment: Dynamic light scattering (DLS), aggregation of lecA. The method, then: Dynamic light scattering experiments (DLS) were performed on the trivalent and divalent galactose-substituted clusters 1, 16 and 17, as well as the glucose-substituted cluster 13 as a negative control. […] The inability of these systems to efficiently aggregate lectins is in stark contrast to the hexavalent benzene cluster, which may be attributed to differences in rigidity and hydrophobicity between the two systems. It thus appears that the direct diaryl sulfide bridge presents a more optimal degree of semi-rigidity.
Figure 2 Dynamic light scattering experiments of bis-D-galactosyl proparyl cluster 16 with lecA. Distribution by mass for lecA + buffer (left) and lecA + 16 (200 μM, right) at 3 minute intervals. Additional experiments can be found in Supporting Information File 1.

Experiment [3] concerns PAO1 biofilm. The experiment in a line: P. aeruginosa adherence / biofilm formation assay, crystal violet staining. To be noted: 5 mM cluster, 24 h, 30 °C, LB medium, compared to glucose-bearing cluster 13 or absence of cluster. Type of experiment: cell-based, Pseudomonas aeruginosa. The method, then: The P. aeruginosa adherence assay was performed in 24 well microplates. Biofilms were obtained after 24 h of incubation at 30 °C in LB medium alone or in the presence or galactose, fucose, or glucose (control)-substituted trivalent clusters and stained with crystal violet (CV).
All reagents were commercial and used without further purification. Solvents were distilled from CaH2.
(§1) Reactions under microwave activation were performed using a Biotage Initiator system. NMR spectra were recorded at 293 K, unless otherwise stated, using a 300 or 400 or 500 MHz spectrometer.
Shifts are referenced relative to deuterated solvent residual peaks. Complete signal assignments from 1D and 2D NMR spectroscopy were based on COSY, HSQC, and HMBC correlations. High-resolution (HR-ESI- QToF) mass spectra were recorded using a Bruker MicroToF-Q II XL spectrometer. Thin-layer chromatography (TLC) was carried out on aluminum sheets coated with silica gel 60 F254 (Merck). […] IR spectra were recorded on a Shimadzu FTIR-8400S IR spectrophotometer and n are expressed in cm-1. NMR spectra were recorded on a Bruker DRX (1H at 300 or 400 MHz, 13C at 75 or 100 MHz) or on a Bruker AV500 spectrometer (1H at 500 MHz, 13C at 125 MHz). HRMS were recorded in electrospray ionization mode on a micro q-tof Micromass in strument (3000 V) with an internal lock mass (H3PO4) and an external lock mass (Leu- […]

Experiment [4] concerns PAO1. The experiment in a line: PAO1 growth inhibition control test. Type of experiment: cell-based, Pseudomonas aeruginosa. To be noted: PAO1 in the presence of clusters. The method, then:
To check that differences observed were not due to bacterial growth defect in the presence of clusters, a growth inhibition control experiment was performed (Figure 4C). […] A) Biofilm growth assay in LB medium. B) Statistical analysis (above, n = 5, duplicate UV measurements) of ethanol-solubilized biofilm recovered from each well (below). C) PAO1 growth inhibition control test.

Experiment [5] concerns the target lecB (Pseudomonas aeruginosa, UniProt Q9HYN5). As to the kind of experiment: Isothermal titration calorimetry (ITC), binding to lecB. The method, then: The affinities of the designed glycoconjugates with lecA and lecB were determined by isothermal titration calorimetry (ITC) by addition of the ligands to a solution of lectin (Figure 3). Dissociation constants (Kd) and thermodynamic parameters (ΔG, ΔH, −TΔS) are listed in Table 1, together with the experimental binding stoichiometry (n), defined as the number of glycocluster ligands per monomer of lectin.
The observed β/N values in Table 1, which reflect the relative affinity per unit sugar, are 29 for the trivalent cluster and in the range of 12 for the bivalent clusters. These values most likely reflect sub-site binding by the heterocyclic rings. […] These clusters thus represent a readily accessible, highly soluble, and convenient tool for the investigation of the role of lecA and lecB in the formation of biofilms by Pseudomonas aeruginosa. […]
as §1
Shifts are referenced relative to deuterated solvent residual peaks. […] High-resolution (HR-ESI- QToF) mass spectra were recorded using a Bruker MicroToF-Q II XL spectrometer. […] IR spectra were recorded on a Shimadzu FTIR-8400S IR spectrophotometer and n are expressed in cm-1. […]

Chain of lecB (Q9HYN5 entry or part of it): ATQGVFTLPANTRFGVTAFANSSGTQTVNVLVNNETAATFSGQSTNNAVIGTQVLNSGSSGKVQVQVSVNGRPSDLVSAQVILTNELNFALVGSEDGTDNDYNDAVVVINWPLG

`OC[C@H]1O[C@@H](n2cc(CSc3nc(SCc4cn([C@@H]5O[C@H](CO)[C@H](O)[C@H](O)[C@H]5O)nn4)nc(SCc4cn([C@@H]5O[C@H](CO)[C@H](O)[C@H](O)[C@H]5O)nn4)n3)nn2)[C@H](O)[C@@H](O)[C@H]1O` [compound 1, 2,4,6-tris(1-(β-D-galactopyranosyl)triazol-4-ylmethylthio)-1,3,5-triazine] registered a Kd in experiment [1] of 1.09 µM. Besides, in experiment [1] (ITC), the ΔG was -8.15 kcal/mol; the ΔH was -15.8 kcal/mol; the “β/N (improvement in affinity relative to the methyl glycoside, divided by the valency)” value was found to be 29; the “−TΔS” value was 7.62 kcal/mol. Besides, in experiment [1] (ITC), the “n (stoichiometry)” value was 0.31. Also, the “aggregation of lecA” value in experiment [2] is recorded as “only the divalent bis-D-Gal propargyl cluster 16 induces rapid aggregation of lecA”. For the same compound, the biofilm formation entry in experiment [3] is recorded as “statistically significant reduction in biofilm formation”. For the same compound, the bacterial growth defect result in experiment [4] is “No growth defect was observed”.

`OC[C@H]1O[C@@H](n2cc(CSc3nc(SCc4cn([C@@H]5O[C@H](CO)[C@@H](O)[C@H](O)[C@H]5O)nn4)nc(SCc4cn([C@@H]5O[C@H](CO)[C@@H](O)[C@H](O)[C@H]5O)nn4)n3)nn2)[C@H](O)[C@@H](O)[C@@H]1O` [compound 13, 2,4,6-tris(1-(β-D-glucopyranosyl)triazol-4-ylmethylthio)-1,3,5-triazine] displayed a ΔG in experiment [1] (ITC) of less than 0 kcal/mol. For the same compound, in experiment [1] (ITC, negative control), the “affinity for the lectin (in words)” value is “no affinity for the lectin”. The “aggregation of lecA” value in experiment [2] is listed as “only the divalent bis-D-Gal propargyl cluster 16 induces rapid aggregation of lecA”. For the same compound, the bacterial growth defect entry in experiment [4] is reported as “No growth defect was observed”.

Consider `C[C@@H]1O[C@H](n2cc(CSc3nc(SCc4cn([C@H]5O[C@@H](C)[C@@H](O)[C@@H](O)[C@@H]5O)nn4)nc(SCc4cn([C@H]5O[C@@H](C)[C@@H](O)[C@@H](O)[C@@H]5O)nn4)n3)nn2)[C@@H](O)[C@H](O)[C@@H]1O` [compound 14, 2,4,6-tris(1-(β-L-fucopyranosyl)triazol-4-ylmethylthio)-1,3,5-triazine], for which binding in experiment [5] was put at a Kd of 50 µM. Also, the biofilm formation result in experiment [3] is listed as “statistically significant reduction in biofilm formation”. For the same compound, in experiment [4], the bacterial growth defect entry is “No growth defect was observed”.

Consider `C#CCSc1nc(SCc2cn([C@@H]3O[C@H](CO)[C@H](O)[C@H](O)[C@H]3O)nn2)nc(SCc2cn([C@@H]3O[C@H](CO)[C@H](O)[C@H](O)[C@H]3O)nn2)n1` [compound 16, 2,4-bis(1-(β-D-galactopyranosyl)triazol-4-ylmethylthio)-6-(prop-2-ynylthio)-1,3,5-triazine], for which, in experiment [1], binding was characterised by a dissociation constant (Kd) of 4.4 µM. Further, in experiment [1] (ITC), the ΔG was -7.29 kcal/mol; the ΔH is -11.4 kcal/mol; the “β/N (improvement in affinity relative to the methyl glycoside, divided by the valency)” value is 11; the “−TΔS” value was 4.11 kcal/mol. Also, in experiment [1] (ITC), the “n (stoichiometry)” value is reported as 0.79. Besides, in experiment [2], the “aggregation of lecA” value is listed as “induces rapid aggregation of lecA”.

Regarding `OC[C@H]1O[C@@H](n2cc(CSc3nc(SCc4cn([C@@H]5O[C@H](CO)[C@H](O)[C@H](O)[C@H]5O)nn4)nc(SCc4cn([C@@H]5O[C@H](CO)[C@@H](O)[C@H](O)[C@H]5O)nn4)n3)nn2)[C@H](O)[C@@H](O)[C@H]1O` [compound 17, 2,4-bis(1-(β-D-galactopyranosyl)triazol-4-ylmethylthio)-6-(1-(β-D-glucopyranosyl)triazol-4-ylmethylthio)-1,3,5-triazine], the affinity in experiment [1], expressed as Kd, was 3.4 µM. Moreover, in experiment [1] (ITC), the ΔG is -7.48 kcal/mol; the ΔH is -12.2 kcal/mol; the “β/N (improvement in affinity relative to the methyl glycoside, divided by the valency)” value stood at 14; the “−TΔS” value worked out at 4.71 kcal/mol. Besides, the “n (stoichiometry)” value in experiment [1] (ITC) worked out at 0.54. Also, the “aggregation of lecA” value in experiment [2] was “only the divalent bis-D-Gal propargyl cluster 16 induces rapid aggregation of lecA”.

As to `CO[C@@H]1O[C@H](CO)[C@H](O)[C@H](O)[C@H]1O` [β-D-GalOMe, methyl β-D-galactoside], the “β/N (improvement in affinity relative to the methyl glycoside, divided by the valency)” value in experiment [1] (ITC) was determined as 1.
